Columns and labels:
[1] = system: Aphis craccivora; experiment: Insecticidal activity against Aphis craccivora (cowpea aphid) infected soybean tender shoots assessed as mortality at 500 mg/L after 24 hr; type: functional
[2] = system: Aphis craccivora; experiment: Insecticidal activity against Aphis craccivora (cowpea aphid) infected soybean tender shoots after 24 hr; type: functional

Compound | mortality at 500 µg/mL [1] [%] | LC50 [2] [µM]
N#CS/C(=C1\Nc2ccccc2N1Cc1ccc(Cl)nc1)[N+](=O)[O-] | 87.8 | 
N#CS/C(C#N)=C1\NCCN1Cc1cnc(Cl)s1 | 0 | 
N=c1sc([N+](=O)[O-])c2n1CCN2Cc1ccc(C(F)(F)F)nc1 | 100 | 24.5
N#CS/C(=C1\NCCN1Cc1cnc(Cl)s1)[N+](=O)[O-] | 100 | 9.74
N#Cc1sc(=N)n2c1N(Cc1ccc(Cl)nc1)CC2 | 32.4 | 
N#CS/C(=C1\NCCN1Cc1ccc(Cl)nc1)[N+](=O)[O-] | 100 | 15.7
N=c1sc([N+](=O)[O-])c2n1CCN2Cc1ccc(Cl)nc1 | 100 | 26.8
N#CS/C(=C1\NCCN1Cc1ccccc1)[N+](=O)[O-] | 24 | 
CCn1c(NCc2ccc(Cl)nc2)c([N+](=O)[O-])sc1=N | 50.8 | 
N=c1sc([N+](=O)[O-])c2n1CCCN2Cc1ccc(Cl)nc1 | 100 | 22
N=c1sc([N+](=O)[O-])c2n1CCN2Cc1cnc(Cl)s1 | 100 | 17.8
N#CS/C(C#N)=C1\NCCN1Cc1ccc(Cl)nc1 | 34.6 | 
N#CS/C(=C1\NCCCN1Cc1ccc(Cl)nc1)[N+](=O)[O-] | 100 | 24.9
N=c1sc([N+](=O)[O-])c2n1CCN2Cc1ccccc1 | 16.2 | 
Cn1c(NCc2ccc(Cl)nc2)c([N+](=O)[O-])sc1=N | 100 | 118
N#CS/C(=C1\NCCN1Cc1ccc(C(F)(F)F)nc1)[N+](=O)[O-] | 100 | 18.9
CCN(Cc1ccc(Cl)nc1)c1c([N+](=O)[O-])sc(=N)n1C | 57.6 | 
